Measurements: publication PMC9571063 (Molecules, 2022)

Experiments:
Experiment in all cases: KINOMEscan
Type in all cases: binding
Conditions in all cases: read-out: Percent Control
[1] = target: T1, ABL1(H396P)-nonphosphorylated (Homo sapiens, UniProt P00519, H396P)
T1 construct: purchased Eurofins DiscoverX KINOMEscan (scanMAX 468)

[2] = target: T2, ABL1(T315I)-nonphosphorylated (Homo sapiens, UniProt P00519, T315I)
T2 construct: purchased Eurofins DiscoverX KINOMEscan (scanMAX 468)

AKT1 = target: T3, AKT1 (Homo sapiens, UniProt P31749)
T3 construct: purchased Eurofins DiscoverX KINOMEscan (scanMAX 468)

AMPK-alpha1 = target: T4, AMPK-alpha1 (Homo sapiens, UniProt Q13131)
T4 construct: purchased Eurofins DiscoverX KINOMEscan (scanMAX 468)

ARK5 = target: T5, ARK5 (Homo sapiens, UniProt O60285)
T5 construct: purchased Eurofins DiscoverX KINOMEscan (scanMAX 468)
T5 sequence (O60285 whole entry): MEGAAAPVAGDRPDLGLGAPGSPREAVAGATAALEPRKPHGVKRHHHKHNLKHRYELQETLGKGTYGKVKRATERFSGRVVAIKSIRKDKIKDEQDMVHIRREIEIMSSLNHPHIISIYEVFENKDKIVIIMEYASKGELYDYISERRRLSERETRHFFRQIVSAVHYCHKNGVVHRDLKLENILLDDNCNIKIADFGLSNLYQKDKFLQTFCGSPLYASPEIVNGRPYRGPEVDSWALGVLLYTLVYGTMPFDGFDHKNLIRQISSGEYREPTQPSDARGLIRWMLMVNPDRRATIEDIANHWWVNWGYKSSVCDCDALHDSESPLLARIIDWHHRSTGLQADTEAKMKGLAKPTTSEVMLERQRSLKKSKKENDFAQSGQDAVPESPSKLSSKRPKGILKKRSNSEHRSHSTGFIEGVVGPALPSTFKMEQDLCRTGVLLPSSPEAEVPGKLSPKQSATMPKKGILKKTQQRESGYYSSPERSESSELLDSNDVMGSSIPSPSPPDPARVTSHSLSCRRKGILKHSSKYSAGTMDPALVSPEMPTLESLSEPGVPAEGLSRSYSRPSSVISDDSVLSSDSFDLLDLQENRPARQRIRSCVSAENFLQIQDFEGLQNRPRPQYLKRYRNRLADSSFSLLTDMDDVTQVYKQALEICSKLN

BRAF(V600E) = target: T6, BRAF(V600E) (Homo sapiens, UniProt P15056, V600E)
T6 construct: purchased Eurofins DiscoverX KINOMEscan (scanMAX 468)

CAMK2B = target: T7, CAMK2B (Homo sapiens, UniProt Q13554)
T7 construct: purchased Eurofins DiscoverX KINOMEscan (scanMAX 468)

CAMKK1 = target: T8, CAMKK1 (Homo sapiens, UniProt Q8N5S9)
T8 construct: purchased Eurofins DiscoverX KINOMEscan (scanMAX 468)

CHEK2 = target: T9, CHEK2 (Homo sapiens, UniProt O96017)
T9 construct: purchased Eurofins DiscoverX KINOMEscan (scanMAX 468)

DCAMKL3 = target: T10, DCAMKL3 (Homo sapiens, UniProt Q9C098)
T10 construct: purchased Eurofins DiscoverX KINOMEscan (scanMAX 468)

EGFR(S752-I759del) = target: T11, EGFR(S752-I759del) (Homo sapiens, UniProt P00533, DEL752-759)
T11 construct: purchased Eurofins DiscoverX KINOMEscan (scanMAX 468)

FLT1 = target: T12, FLT1 (Homo sapiens, UniProt P17948)
T12 construct: purchased Eurofins DiscoverX KINOMEscan (scanMAX 468)

IKK-epsilon = target: T13, IKK-epsilon (Homo sapiens, UniProt Q14164)
T13 construct: purchased Eurofins DiscoverX KINOMEscan (scanMAX 468)

IRAK4 = target: T14, IRAK4 (Homo sapiens, UniProt Q9NWZ3)
T14 construct: purchased Eurofins DiscoverX KINOMEscan (scanMAX 468)

[3] = target: T15, JAK1(JH2domain-pseudokinase) (Homo sapiens, UniProt P23458)
T15 construct: JAK1(JH2domain-pseudokinase); purchased Eurofins DiscoverX KINOMEscan (scanMAX 468)

LIMK1 = target: T16, LIMK1 (Homo sapiens, UniProt P53667)
T16 construct: purchased Eurofins DiscoverX KINOMEscan (scanMAX 468)

MAP4K3 = target: T17, MAP4K3 (Homo sapiens, UniProt Q8IVH8)
T17 construct: purchased Eurofins DiscoverX KINOMEscan (scanMAX 468)
T17 sequence (Q8IVH8 whole entry): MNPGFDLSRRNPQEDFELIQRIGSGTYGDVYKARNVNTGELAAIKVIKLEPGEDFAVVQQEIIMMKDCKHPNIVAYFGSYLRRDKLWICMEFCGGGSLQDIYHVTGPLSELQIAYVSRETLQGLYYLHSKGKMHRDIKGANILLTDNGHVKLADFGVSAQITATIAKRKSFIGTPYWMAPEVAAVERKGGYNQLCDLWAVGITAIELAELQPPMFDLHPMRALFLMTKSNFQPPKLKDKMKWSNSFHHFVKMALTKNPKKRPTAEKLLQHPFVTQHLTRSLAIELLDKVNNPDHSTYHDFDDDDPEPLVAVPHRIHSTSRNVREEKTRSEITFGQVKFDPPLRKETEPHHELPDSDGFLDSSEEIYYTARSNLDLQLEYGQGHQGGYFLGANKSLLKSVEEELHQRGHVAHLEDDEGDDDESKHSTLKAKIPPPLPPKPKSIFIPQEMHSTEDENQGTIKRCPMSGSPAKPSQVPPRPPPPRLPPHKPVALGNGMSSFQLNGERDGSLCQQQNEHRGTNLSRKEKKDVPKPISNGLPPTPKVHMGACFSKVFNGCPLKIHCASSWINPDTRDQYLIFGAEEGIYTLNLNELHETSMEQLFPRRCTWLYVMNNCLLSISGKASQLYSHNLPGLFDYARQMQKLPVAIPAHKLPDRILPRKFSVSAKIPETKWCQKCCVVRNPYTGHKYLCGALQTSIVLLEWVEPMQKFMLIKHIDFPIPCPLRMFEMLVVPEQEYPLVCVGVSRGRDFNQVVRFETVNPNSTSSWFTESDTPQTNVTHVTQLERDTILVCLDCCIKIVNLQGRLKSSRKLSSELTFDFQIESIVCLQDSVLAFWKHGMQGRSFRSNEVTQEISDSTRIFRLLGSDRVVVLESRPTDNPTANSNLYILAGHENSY

MARK1 = target: T18, MARK1 (Homo sapiens, UniProt Q9P0L2)
T18 construct: purchased Eurofins DiscoverX KINOMEscan (scanMAX 468)
T18 sequence (Q9P0L2 whole entry): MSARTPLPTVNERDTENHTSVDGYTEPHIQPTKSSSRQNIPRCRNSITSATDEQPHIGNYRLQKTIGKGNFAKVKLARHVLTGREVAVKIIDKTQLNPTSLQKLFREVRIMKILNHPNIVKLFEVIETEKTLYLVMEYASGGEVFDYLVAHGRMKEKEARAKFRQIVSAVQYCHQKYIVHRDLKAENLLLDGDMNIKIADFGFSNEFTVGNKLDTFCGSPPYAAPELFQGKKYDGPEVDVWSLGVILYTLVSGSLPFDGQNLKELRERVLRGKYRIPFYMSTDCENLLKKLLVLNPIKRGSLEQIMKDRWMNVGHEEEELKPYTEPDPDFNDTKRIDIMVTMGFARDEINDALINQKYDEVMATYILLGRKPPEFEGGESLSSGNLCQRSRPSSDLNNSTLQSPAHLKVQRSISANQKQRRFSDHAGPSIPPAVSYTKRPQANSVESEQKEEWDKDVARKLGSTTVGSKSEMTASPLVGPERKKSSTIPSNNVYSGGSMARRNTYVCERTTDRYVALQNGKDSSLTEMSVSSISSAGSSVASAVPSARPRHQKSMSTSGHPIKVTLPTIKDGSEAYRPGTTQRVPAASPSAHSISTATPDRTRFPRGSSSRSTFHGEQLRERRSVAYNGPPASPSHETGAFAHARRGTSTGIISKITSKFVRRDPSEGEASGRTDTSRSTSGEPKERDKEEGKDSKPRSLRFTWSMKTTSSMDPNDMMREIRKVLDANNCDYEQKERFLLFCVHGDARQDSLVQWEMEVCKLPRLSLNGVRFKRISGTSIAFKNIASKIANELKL

MARK2 = target: T19, MARK2 (Homo sapiens, UniProt Q7KZI7)
T19 construct: purchased Eurofins DiscoverX KINOMEscan (scanMAX 468)

MERTK = target: T20, MERTK (Homo sapiens, UniProt Q12866)
T20 construct: purchased Eurofins DiscoverX KINOMEscan (scanMAX 468)

MYLK4 = target: T21, MYLK4 (Homo sapiens, UniProt Q86YV6)
T21 construct: purchased Eurofins DiscoverX KINOMEscan (scanMAX 468)

NEK4 = target: T22, NEK4 (Homo sapiens, UniProt P51957)
T22 construct: purchased Eurofins DiscoverX KINOMEscan (scanMAX 468)

NIK = target: T23, NIK (Homo sapiens, UniProt Q99558)
T23 construct: purchased Eurofins DiscoverX KINOMEscan (scanMAX 468)

PCTK2 = target: T24, PCTK2 (Homo sapiens, UniProt Q00537)
T24 construct: purchased Eurofins DiscoverX KINOMEscan (scanMAX 468)
T24 sequence (Q00537 whole entry): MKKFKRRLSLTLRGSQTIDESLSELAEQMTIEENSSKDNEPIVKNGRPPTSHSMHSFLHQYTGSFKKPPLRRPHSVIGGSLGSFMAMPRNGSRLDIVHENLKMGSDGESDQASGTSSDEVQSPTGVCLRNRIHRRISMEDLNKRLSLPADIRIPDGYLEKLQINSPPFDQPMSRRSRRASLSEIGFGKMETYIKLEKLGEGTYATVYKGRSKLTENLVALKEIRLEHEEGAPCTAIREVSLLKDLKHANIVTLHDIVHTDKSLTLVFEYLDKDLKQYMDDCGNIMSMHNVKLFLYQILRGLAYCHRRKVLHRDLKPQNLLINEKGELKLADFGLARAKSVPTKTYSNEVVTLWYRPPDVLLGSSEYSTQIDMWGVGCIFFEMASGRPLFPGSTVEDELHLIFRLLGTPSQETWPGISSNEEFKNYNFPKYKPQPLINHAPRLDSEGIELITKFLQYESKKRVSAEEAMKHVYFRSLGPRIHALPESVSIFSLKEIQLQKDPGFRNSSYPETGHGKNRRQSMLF

PIK3CA(E545A) = target: T25, PIK3CA(E545A) (Homo sapiens, UniProt P42336, E545A)
T25 construct: purchased Eurofins DiscoverX KINOMEscan (scanMAX 468)
T25 sequence (P42336 whole entry E545A): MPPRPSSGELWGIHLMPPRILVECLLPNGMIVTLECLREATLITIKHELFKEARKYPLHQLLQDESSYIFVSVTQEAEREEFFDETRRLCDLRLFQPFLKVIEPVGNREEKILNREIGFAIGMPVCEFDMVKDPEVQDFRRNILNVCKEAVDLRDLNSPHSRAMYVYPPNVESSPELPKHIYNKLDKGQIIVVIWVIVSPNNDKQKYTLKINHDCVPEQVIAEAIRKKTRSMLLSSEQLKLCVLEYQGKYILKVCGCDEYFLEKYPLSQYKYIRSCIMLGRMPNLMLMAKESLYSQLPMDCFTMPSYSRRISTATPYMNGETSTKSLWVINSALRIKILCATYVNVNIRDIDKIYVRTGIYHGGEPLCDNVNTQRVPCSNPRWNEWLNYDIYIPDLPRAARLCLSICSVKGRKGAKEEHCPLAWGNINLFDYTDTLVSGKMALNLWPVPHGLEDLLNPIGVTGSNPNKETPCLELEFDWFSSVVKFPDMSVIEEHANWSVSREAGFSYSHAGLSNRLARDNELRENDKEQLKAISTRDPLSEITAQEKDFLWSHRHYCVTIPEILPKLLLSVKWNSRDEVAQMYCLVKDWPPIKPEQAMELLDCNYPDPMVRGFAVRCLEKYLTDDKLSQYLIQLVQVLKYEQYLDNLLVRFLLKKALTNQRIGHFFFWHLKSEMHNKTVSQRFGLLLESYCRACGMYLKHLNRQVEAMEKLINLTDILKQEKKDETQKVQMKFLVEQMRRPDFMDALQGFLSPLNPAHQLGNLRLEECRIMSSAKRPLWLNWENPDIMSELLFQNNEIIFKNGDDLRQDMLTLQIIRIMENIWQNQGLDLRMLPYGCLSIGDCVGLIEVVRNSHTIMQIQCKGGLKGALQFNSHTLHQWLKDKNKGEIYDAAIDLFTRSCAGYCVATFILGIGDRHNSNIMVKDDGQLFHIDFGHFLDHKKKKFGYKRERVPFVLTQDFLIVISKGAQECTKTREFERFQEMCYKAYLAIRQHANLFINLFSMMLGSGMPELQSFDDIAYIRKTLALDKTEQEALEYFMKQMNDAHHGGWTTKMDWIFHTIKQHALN

PIK3CA(M1043I) = target: T26, PIK3CA(M1043I) (Homo sapiens, UniProt P42336, M1043I)
T26 construct: purchased Eurofins DiscoverX KINOMEscan (scanMAX 468)
T26 sequence (P42336 whole entry M1043I): as the sequence (P42336 whole entry E545A) above, with A545E, M1043I counted along it

PIP5K2B = target: T27, PIP5K2B (Homo sapiens, UniProt P78356)
T27 construct: purchased Eurofins DiscoverX KINOMEscan (scanMAX 468)

PRKCQ = target: T28, PRKCQ (Homo sapiens, UniProt Q04759)
T28 construct: purchased Eurofins DiscoverX KINOMEscan (scanMAX 468)

PYK2 = target: T29, PYK2 (Homo sapiens, UniProt Q14289)
T29 construct: purchased Eurofins DiscoverX KINOMEscan (scanMAX 468)
T29 sequence (Q14289 whole entry): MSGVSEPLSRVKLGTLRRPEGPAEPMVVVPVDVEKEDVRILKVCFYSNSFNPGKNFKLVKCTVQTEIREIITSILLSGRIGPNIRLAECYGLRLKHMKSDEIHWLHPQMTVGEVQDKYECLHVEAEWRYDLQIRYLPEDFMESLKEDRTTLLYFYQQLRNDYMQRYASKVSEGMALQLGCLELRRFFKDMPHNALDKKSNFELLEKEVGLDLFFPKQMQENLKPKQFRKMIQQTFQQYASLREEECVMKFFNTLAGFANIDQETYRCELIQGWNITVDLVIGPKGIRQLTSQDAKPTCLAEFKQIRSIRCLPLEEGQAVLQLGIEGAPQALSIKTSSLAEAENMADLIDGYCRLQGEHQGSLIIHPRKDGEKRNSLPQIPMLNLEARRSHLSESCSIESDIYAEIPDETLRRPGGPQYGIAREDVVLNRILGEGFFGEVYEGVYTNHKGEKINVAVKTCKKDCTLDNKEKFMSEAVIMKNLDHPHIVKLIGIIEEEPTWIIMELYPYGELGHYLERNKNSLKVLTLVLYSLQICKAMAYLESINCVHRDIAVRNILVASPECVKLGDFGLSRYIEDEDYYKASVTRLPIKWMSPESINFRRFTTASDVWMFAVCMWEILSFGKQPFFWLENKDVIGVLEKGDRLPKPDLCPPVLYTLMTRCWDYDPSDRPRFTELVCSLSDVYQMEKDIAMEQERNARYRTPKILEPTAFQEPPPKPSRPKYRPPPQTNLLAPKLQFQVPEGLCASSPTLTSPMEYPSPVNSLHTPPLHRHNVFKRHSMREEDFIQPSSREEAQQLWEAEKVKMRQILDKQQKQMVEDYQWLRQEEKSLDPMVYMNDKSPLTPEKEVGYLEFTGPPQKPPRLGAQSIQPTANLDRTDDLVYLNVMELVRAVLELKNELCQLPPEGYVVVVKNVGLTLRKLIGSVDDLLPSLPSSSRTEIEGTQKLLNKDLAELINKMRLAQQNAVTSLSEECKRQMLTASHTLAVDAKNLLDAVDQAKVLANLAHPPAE

RIPK2 = target: T30, RIPK2 (Homo sapiens, UniProt O43353)
T30 construct: purchased Eurofins DiscoverX KINOMEscan (scanMAX 468)

[4] = target: T31, RSK2(Kin.Dom.1-N-terminal) (Homo sapiens, UniProt P51812)
T31 construct: RSK2(Kin.Dom.1-N-terminal); purchased Eurofins DiscoverX KINOMEscan (scanMAX 468)

[5] = target: T32, RSK3(Kin.Dom.1-N-terminal) (Homo sapiens, UniProt Q15349)
T32 construct: RSK3(Kin.Dom.1-N-terminal); purchased Eurofins DiscoverX KINOMEscan (scanMAX 468)

[6] = target: T33, RSK4(Kin.Dom.2-C-terminal) (Homo sapiens, UniProt Q9UK32)
T33 construct: RSK4(Kin.Dom.2-C-terminal); purchased Eurofins DiscoverX KINOMEscan (scanMAX 468)

SgK110 = target: T34, SgK110 (Homo sapiens, UniProt P0C264)
T34 construct: purchased Eurofins DiscoverX KINOMEscan (scanMAX 468)

STK16 = target: T35, STK16 (Homo sapiens, UniProt O75716)
T35 construct: purchased Eurofins DiscoverX KINOMEscan (scanMAX 468)

TESK1 = target: T36, TESK1 (Homo sapiens, UniProt Q15569)
T36 construct: purchased Eurofins DiscoverX KINOMEscan (scanMAX 468)

TLK2 = target: T37, TLK2 (Homo sapiens, UniProt Q86UE8)
T37 construct: purchased Eurofins DiscoverX KINOMEscan (scanMAX 468)

WEE2 = target: T38, WEE2 (Homo sapiens, UniProt P0C1S8)
T38 construct: purchased Eurofins DiscoverX KINOMEscan (scanMAX 468)

WNK1 = target: T39, WNK1 (Homo sapiens, UniProt Q9H4A3)
T39 construct: purchased Eurofins DiscoverX KINOMEscan (scanMAX 468)

ZAP70 = target: T40, ZAP70 (Homo sapiens, UniProt P43403)
T40 construct: purchased Eurofins (KINOMEscan, DiscoverX)

## Cc1ccc(-n2cc(COc3cccc4cnc(Nc5cccc(Cl)c5)nc34)nn2)c([N+](=O)[O-])c1 [DB18]
[1]
  remaining binding at 1 µM: 96%
[2]
  remaining binding at 1 µM: 89%
AKT1
  remaining binding at 1 µM: 87%
AMPK-alpha1
  remaining binding at 1 µM: 94%
ARK5
  remaining binding at 1 µM: 100%
BRAF(V600E)
  remaining binding at 1 µM: 96%
CAMK2B
  remaining binding at 1 µM: 100%
CAMKK1
  remaining binding at 1 µM: 100%
CHEK2
  remaining binding at 1 µM: 100%
DCAMKL3
  remaining binding at 1 µM: 100%
EGFR(S752-I759del)
  remaining binding at 1 µM: 91%
FLT1
  remaining binding at 1 µM: 100%
IKK-epsilon
  remaining binding at 1 µM: 96%
IRAK4
  remaining binding at 1 µM: 100%
[3]
  remaining binding at 1 µM: 100%
LIMK1
  remaining binding at 1 µM: 100%
MAP4K3
  remaining binding at 1 µM: 95%
MARK1
  remaining binding at 1 µM: 99%
MARK2
  remaining binding at 1 µM: 94%
MERTK
  remaining binding at 1 µM: 100%
MYLK4
  remaining binding at 1 µM: 94%
NEK4
  remaining binding at 1 µM: 99%
NIK
  remaining binding at 1 µM: 86%
PCTK2
  remaining binding at 1 µM: 98%
PIK3CA(E545A)
  remaining binding at 1 µM: 100%
PIK3CA(M1043I)
  remaining binding at 1 µM: 100%
PIP5K2B
  remaining binding at 1 µM: 100%
PRKCQ
  remaining binding at 1 µM: 100%
PYK2
  remaining binding at 1 µM: 100%
RIPK2
  remaining binding at 1 µM: 98%
[4]
  remaining binding at 1 µM: 100%
[5]
  remaining binding at 1 µM: 100%
[6]
  remaining binding at 1 µM: 100%
SgK110
  remaining binding at 1 µM: 85%
STK16
  remaining binding at 1 µM: 41%
TESK1
  remaining binding at 1 µM: 95%
TLK2
  remaining binding at 1 µM: 100%
WEE2
  remaining binding at 1 µM: 100%
WNK1
  remaining binding at 1 µM: 100%
ZAP70
  remaining binding at 1 µM: 100%
